Like-named read-outs stand apart in the source and are kept apart here.
Tested on: AsPC-1 cells
Experiment: Cell proliferation assay, chemodrug + ATR inhibitor (Incucyte confluence, 72 h);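 further: underlying read-out for every value is AsPC-1 confluence after 72 h incubation at 37 °C and 5% CO2, divided by that well's starting confluence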
Conditions: for EC50: Homo sapiens
Experimental: Cells were seeded at 5000 cells/well into 96-well flat bottom plates (Eppendorf) and allowed to attach overnight. […] Cells were incubated for 72 h at 37 °C and 5% CO2. Cell confluence readouts at 72 h were either normalized to their initial confluence using the Incucyte software (AsPC-1) or used without prior normalization (all others). […] Each experiment was performed in triplicates, the data was plotted as mean ± standard deviation (s.d.).

With Nc1ccn([C@@H]2O[C@H](CO)[C@@H](O)C2(F)F)c(=O)n1 [GEM, Gemcitabine] the “Raw data (confluence at 72 h/confluence at 0 h)” value (shortened to “Raw data”) (Experiment (ATRi) Elimusertib, replicate R1, drug dose (titrated) 1000 nM) was 1.56, the “Raw data” value (Experiment (ATRi) Elimusertib, replicate R1, drug dose (titrated) 3000 nM) was 1.44 and the “Raw data” value (Experiment (ATRi) Elimusertib, replicate R2, drug dose (titrated) 1 nM) was 3.86. For the same molecule, the “Raw data” value (Experiment (ATRi) Elimusertib, replicate R2, drug dose (titrated) 3 nM) was 3.95, the “Raw data” value (Experiment (ATRi) Elimusertib, replicate R2, drug dose (titrated) 10 nM) was 3.59 and the “Raw data” value (Experiment (ATRi) Elimusertib, replicate R2, drug dose (titrated) 30 nM) was 3.07. For the same molecule, the “Raw data” value (Experiment (ATRi) Elimusertib, replicate R2, drug dose (titrated) 100 nM) was 2.33, the “Raw data” value (Experiment (ATRi) Elimusertib, replicate R3, drug dose (titrated) 1 nM) was 3.76 and the “Raw data” value (Experiment (ATRi) Elimusertib, replicate R3, drug dose (titrated) 3 nM) was 3.85. The “Raw data” value (Experiment (ATRi) Elimusertib, replicate R3, drug dose (titrated) 10 nM) was 3.75, the “Raw data” value (Experiment (ATRi) Elimusertib, replicate R3, drug dose (titrated) 30 nM) was 3.15 and the “Raw data” value (Experiment (ATRi) Elimusertib, replicate R3, drug dose (titrated) 100 nM) was 2.28. The “Raw data” value (Experiment (ATRi) Gartisertib, replicate R1, drug dose (titrated) 1 nM) was 3.28, the “Raw data” value (Experiment (ATRi) Gartisertib, replicate R1, drug dose (titrated) 3 nM) was 3.04 and the “Raw data” value (Experiment (ATRi) Gartisertib, replicate R1, drug dose (titrated) 10 nM) was 2.71. The “Raw data” value (Experiment (ATRi) Gartisertib, replicate R1, drug dose (titrated) 30 nM) was 2.57, the “Raw data” value (Experiment (ATRi) Gartisertib, replicate R1, drug dose (titrated) 100 nM) was 2.04 and the “Raw data” value (Experiment (ATRi) Gartisertib, replicate R1, drug dose (titrated) 300 nM) was 1.92. The “Raw data” value (Gartisertib experiment, replicate R2, titrated drug dose 1 nM) was 4.01, the “Raw data” value (Gartisertib experiment, replicate R2, titrated drug dose 3 nM) was 4.05 and the “Raw data” value (Gartisertib experiment, replicate R2, titrated drug dose 10 nM) was 3.93. For the same molecule, the “Raw data” value (Gartisertib experiment, replicate R2, titrated drug dose 30 nM) was 3.32, the “Raw data” value (Gartisertib experiment, replicate R2, titrated drug dose 100 nM) was 2.49 and the “Raw data” value (Gartisertib experiment, replicate R2, titrated drug dose 300 nM) was 2.07. The “Raw data” value (Gartisertib experiment, replicate R2, titrated drug dose 1000 nM) was 1.91, the “Raw data” value (Gartisertib experiment, replicate R2, titrated drug dose 3000 nM) was 1.89 and the “Raw data” value (Gartisertib experiment, replicate R3, titrated drug dose 1 nM) was 4.16. For the same molecule, the “Raw data” value (Gartisertib experiment, replicate R3, titrated drug dose 3 nM) was 3.98, the “Raw data” value (Gartisertib experiment, replicate R3, titrated drug dose 10 nM) was 3.74 and the “Raw data” value (Gartisertib experiment, replicate R3, titrated drug dose 30 nM) was 3.24. The “Raw data” value (Gartisertib experiment, replicate R3, titrated drug dose 100 nM) was 2.56, the “Raw data” value (Gartisertib experiment, replicate R3, titrated drug dose 300 nM) was 2.02 and the EC50 (ASPC1, 72 h, AsPC1, Experiment GEM (Gemcitabine alone) in the Berzosertib series, single replicates R1-R3) was 34.6 nM. For the same molecule, the EC50 (ASPC1, 72 h, AsPC1, Experiment GEM (Gemcitabine alone) in the Ceralasertib series, single replicates R1-R3) was 42.6 nM, the EC50 (ASPC1, 72 h, AsPC1, Experiment GEM (Gemcitabine alone) in the Elimusertib series, single replicates R1-R3) was 42.4 nM and the EC50 (ASPC1, 72 h, AsPC1, Experiment GEM (Gemcitabine alone) in the Gartisertib series, single replicates R1-R3) was 34.1 nM. The EC50 (ASPC1, 72 h, read-out: EC50 (cell growth), GEM alone, mean of four experiments) was 45 nM, the EC50 (ASPC1, 72 h, read-out: EC50 mean [nM], AsPC1, Experiment GEM alone in the Berzosertib series, mean of replicates) was 40.5 nM and the EC50 (ASPC1, 72 h, read-out: EC50 mean [nM], AsPC1, Experiment GEM alone in the Ceralasertib series, mean of replicates) was 45.5 nM. The EC50 (ASPC1, 72 h, read-out: EC50 mean [nM], AsPC1, Experiment GEM alone in the Elimusertib series, mean of replicates) was 44.4 nM, the EC50 (ASPC1, 72 h, read-out: EC50 mean [nM], AsPC1, Experiment GEM alone in the Gartisertib series, mean of replicates) was 46 nM and the EC50 (ASPC1, 72 h, read-out: pEC50, AsPC1 (converted), Experiment GEM (Gemcitabine alone) in the Berzosertib series, single replicates R1-R3) was 34.7 nM. It also gave an EC50 (ASPC1, 72 h, read-out: pEC50, AsPC1 (converted), Experiment GEM (Gemcitabine alone) in the Ceralasertib series, single replicates R1-R3) of 42.7 nM, an EC50 (ASPC1, 72 h, read-out: pEC50, AsPC1 (converted), Experiment GEM (Gemcitabine alone) in the Elimusertib series, single replicates R1-R3) of 42.7 nM and an EC50 (ASPC1, 72 h, read-out: pEC50, AsPC1 (converted), Experiment GEM (Gemcitabine alone) in the Gartisertib series, single replicates R1-R3) of 33.9 nM. For the same molecule, the EC50 (ASPC1, read-out: EC50 mean [nM], AsPC1, Experiment GEM alone in the Berzosertib series, mean of replicates) was 40.5 nM, the EC50 (ASPC1, read-out: EC50 mean [nM], AsPC1, Experiment GEM alone in the Ceralasertib series, mean of replicates) was 45.5 nM and the EC50 (ASPC1, read-out: EC50 mean [nM], AsPC1, Experiment GEM alone in the Elimusertib series, mean of replicates) was 44.4 nM. The EC50 (ASPC1, read-out: EC50 mean [nM], AsPC1, Experiment GEM alone in the Gartisertib series, mean of replicates) was 46 nM, the EC50 (ASPC1, read-out: EC50 mean, GEM alone, Berzosertib experiment) was 40.5 nM and the EC50 (ASPC1, read-out: EC50 mean, GEM alone, Ceralasertib experiment) was 45.5 nM. The EC50 (ASPC1, read-out: EC50 mean, GEM alone, Elimusertib experiment) was 44.4 nM, the EC50 (ASPC1, read-out: EC50 mean, GEM alone, Gartisertib experiment) was 46 nM and the “Raw data” value (titrated drug dose 10 nM, replicate R3, experiment (ATRi) Ceralasertib, AsPC-1, 72 h) was 3.37. The “Raw data” value (titrated drug dose 30 nM, replicate R3, experiment (ATRi) Ceralasertib, AsPC-1, 72 h) was 2.93 and the “Raw data” value (titrated drug dose 1000 nM, replicate R3, experiment (ATRi) Ceralasertib, AsPC-1, 72 h) was 1.56.

Source: paper PMC11876601 (Molecular Systems Biology, 2025)
